Laboratory results as given in patent publication US20220257491A1, “Prebiotic Oral Care Compositions and Methods” (Colgate-Palmolive Company, priority 2021, published 2022).

System: V. parvula
Test: Multi-species biofilm composition: absolute abundance of V. parvula
Type: cell-based
Conditions: mean±SD n=3
Protocol: Biofilms are grown vertically on Calcium Deficient Hydroxyapatite (CAD-HA) disks (Hitemco Medical, Old Bethpage, USA) using the Amsterdam Active Adhesion model. Biofilms are allowed to establish during 24 h (37° C., 170 rpm) under micro-aerophilic conditions (6% O2, 7% CO2, 7% H2, 80% N2). After this 24 h, disks are rinsed 3 times a day for 3 minutes (RT, 250 rpm), for 3 consecutive days, by transferring the lid containing the disks to a new 24-well plate containing 2 mL/well of the appropriate substrate solution. As a negative control, PBS (pH 5.7) without substrate supplementation is used. After each rinsing step, disks are shortly dip-rinsed in a new 24-well plate containing fresh modified BHI medium (2 mL/well) to remove remaining substrate traces. Subsequently, the lid is transferred to another 24-well plate containing fresh modified BHI medium (2 mL/well), followed by incubation (micro-aerophilic, 37° C., 170 rpm) until the next rinsing step.
NADM, N-acetyl-D-glucosamine (“NADG”) and D-(+)-mannose are selected to determine their effects on multi-species biofilm composition. Repeated rinsing of the biofilms with the substrates at a concentration of 1M results in a significant decrease in absolute numbers in at least four of the pathogenic bacterial species tested in the assay, compared to the control, the results of which are described in Table 1 below. Absolute abundances of bacterial species are shown as mean±SD (n=3) logarithmic values of the genome equivalents per millilitre (log(Geq/mL)).

Compound | Absolute abundance Vp (V. parvula) (substrate 1%(w/v) in PBS) | Absolute abundance Vp (V. parvula) (substrate 1 M in PBS)
CC(=O)N[C@@H]1C(O)O[C@H](CO)[C@@H](O)[C@@H]1O (stereo partly drawn) [NADM, N-acetyl-D-mannosamine] | 10.05 ± 0.17 log(Geq/mL) | 10.76 ± 0.09 log(Geq/mL)
O=C[C@@H](O)[C@@H](O)[C@H](O)[C@H](O)CO [D-mannose, D-(+)-mannose] | 9.93 ± 0.20 log(Geq/mL) | 10.18 ± 0.09 log(Geq/mL)
CC(=O)N[C@H]1C(O)O[C@H](CO)[C@@H](O)[C@@H]1O (stereo partly drawn) [NADG, N-acetyl-D-glucosamine, reference compound] | 9.77 ± 0.19 log(Geq/mL) | 10.57 ± 0.24 log(Geq/mL)
